Values of other authors in article PMC2552397 (Journal of medicinal chemistry, 2008).

Assays:
GGPPS = molecular target: T1, GGPPS (Homo sapiens, UniProt O95749); details: in words
T1 sequence (O95749 1-300): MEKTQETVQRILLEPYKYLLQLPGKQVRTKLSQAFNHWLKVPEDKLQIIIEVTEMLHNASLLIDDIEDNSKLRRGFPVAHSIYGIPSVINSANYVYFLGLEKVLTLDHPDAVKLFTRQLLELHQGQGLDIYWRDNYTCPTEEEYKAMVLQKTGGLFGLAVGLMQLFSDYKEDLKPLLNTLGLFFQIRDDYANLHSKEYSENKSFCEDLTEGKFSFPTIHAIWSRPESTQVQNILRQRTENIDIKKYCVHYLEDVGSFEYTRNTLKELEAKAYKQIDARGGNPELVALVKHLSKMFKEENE

K562 tumor cell line = details: in words

SMILES	activity against GGPPS (GGPPS)	activity against a K562 tumor cell line (K562 tumor cell line)
CCCCCCCCCC(O)(P(=O)(O)O)P(=O)(O)O [compound 4]	quite potent activity	
CC(C)=CCC/C(C)=C/CC(C/C=C(\C)CCC=C(C)C)(P(=O)(O)O)P(=O)(O)O [compound 5, digeranyl methylene bisphosphonate]	potent activity	potent activity
